{
  "source": "patent US7674783B2",
  "about": "“Estrogen beta receptor agonists to prevent or reduce the severity of cardiovascular disease” (Dimera Inc., priority 2002, dated 2010)",
  "key": {"[1]": {"biological_target": "T1, estrogen receptor beta (ERβ/D22 interaction) (Homo sapiens, UniProt Q92731)", "T1 construct": "purchased PanVera/Invitrogen (Invitrogen Corp., Carlsbad, Calif.)", "T1 sequence (Q92731 whole entry)": "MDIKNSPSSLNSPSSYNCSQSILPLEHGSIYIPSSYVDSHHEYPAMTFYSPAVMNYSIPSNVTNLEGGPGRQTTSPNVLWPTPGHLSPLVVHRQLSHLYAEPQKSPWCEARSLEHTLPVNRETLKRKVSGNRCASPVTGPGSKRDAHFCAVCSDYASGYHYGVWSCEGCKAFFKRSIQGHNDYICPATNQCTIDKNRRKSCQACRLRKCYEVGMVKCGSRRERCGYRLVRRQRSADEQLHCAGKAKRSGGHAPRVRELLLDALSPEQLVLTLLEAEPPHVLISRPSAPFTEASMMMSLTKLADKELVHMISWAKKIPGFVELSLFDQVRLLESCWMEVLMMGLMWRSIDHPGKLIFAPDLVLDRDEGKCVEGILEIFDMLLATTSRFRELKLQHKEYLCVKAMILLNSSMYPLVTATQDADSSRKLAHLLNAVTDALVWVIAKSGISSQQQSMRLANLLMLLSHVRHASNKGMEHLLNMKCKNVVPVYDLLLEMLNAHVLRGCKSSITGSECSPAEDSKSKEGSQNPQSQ", "test": "ERβ coactivator fluorescence polarization assay", "format": "biochemical", "conditions": "0.038 nM to 1240 nM, triplicate, FIG. 3", "experimental": "An estrogen receptor beta coactivator fluorescence polarization assay was performed by PanVera/Invitrogen discovery screening applying the company's ERβ Coactivator Assay Kit (Invitrogen Corp., Carlsbad, Calif.) using fluorescence polarization with known estrogen receptor ligands (estradiol, ICI182,780, tamoxifen, and OH-tamoxifen) and test compounds (estriol, 3βAdiol, and epiestriol).\nData on the X-axis of the graph of FIG. 3 are represented as log of concentrations from 0.038 nM to 1240 nM tested for each of the perspective ligands. The ligand concentration that produces a half-maximal increase or decrease in polarization equals the ligand EC50 for the ERβ/D22 interaction. The ordinate Y-axis, mP, indicates fluorescence polarization units. Increase in polarization indicates agonist activity. Conversely, a decrease in polarization indicates antagonist activity. The date represent mean +/− standard deviation of the polarization values from the assay performed in triplicate."}, "rhesus coronary VMC": {"system": "rhesus coronary VMC", "test": "Ca2+ responses to S+U in rhesus coronary VMC after in vitro treatment (Fluo3 imaging)", "format": "cell-based, rhesus monkey", "conditions": "for Ca2+ response to S+U (protected state vs control): FIG. 6, p<0.05; for Ca2+ signal in response to 15 sec S+U (protection): FIG. 4", "from_the_text": "(§1) Hearts or major blood vessels are removed at necropsy from rhesus monkeys sacrificed for other purposes and are immediately immersed in cold ionic solution for mammals (ISM2). ISM2 contains, in mM, 100 NaCl, 16 NaHCO3, 0.5 NaH2PO4, 4.7 KCl, 1.8 CaCl2, 0.4 MgCl2, 0.4 HgSO4, 50 HEPES, and 5.5 dextrose, at pH 7-3 to 7.4. Single cells are enzymatically dissociated in a multi-step process for hearts and coronary arteries are dissected from the anterior and posterior walls of the ventricles and the atrioventricular sulcus. The coronary artery segments are cleaned and then cut into small pieces and rinsed in culture solution for mammals—5th generation (CV5M) for 10 min, followed by potassium glutamate (KG) solution for 10 min, both at room temperature. CV5M contains 4.0 mM L-glutamine, 100 μg/mL ciprofloxacin, 50 mM HEPES (pH 7.3), and 16 mM NaHCO3 dissolved in 90% MEM-Earles's salts and 10% horse serum. KG solution contains, in mM, 140 K-glutamate, 50 HEPES (pH 7.3), 16 NaH2PO4, and 16.5 dextrose.\nThe coronary artery tissue is then incubated at 37° C. for 60 min in an enzyme solution (430 U/ml collagenase and 2 U/ml elastase with 2 mg/ml bovine serum albumin and 100 μM Ca^2+ in 10 ml of 37° C. KG) with slow stirring. The supernatant is transferred to 25 ml of 4° C. KG holding solution with 10% horse serum (KG-H), and 10 ml of enzyme solution is added to the remaining un-dispersed tissue fragments. This enzymatic treatment is repeated three times.\nEnzyme exposure is minimized by cold and added serum. Holding solutions (with 10% serum) containing the dispersed cells are centrifuged at 200 G and 4° C. for 5 min. After the supernatant is removed, the cells are re-suspended in 5 ml of 37° C. CV5M and incubated for 1 hr at 37° C. to permit preferential attachment of fibroblasts. The remaining cells in suspension are counted and concentrated to ˜100,000 living cells/ml by centrifugation, and re-suspended in CV5M at 37° C. VMC are then seeded on clean glass coverslips in culture plates, and maintained undisturbed in 95% air-5% CO2 and 95% humidity at 37° C. for attachment for 12 hr, and then flooded with CV5M. Cells from the suspension are also similarly seeded in growth optimized culture flasks and flooded with CV5M after 12 hr.\nMedia changes to a 1% medium (CV5MM, identical to CV5M except the concentration of horse serum is 1 %) are used to reduce growth factors after 2-4 days. Strict pH control (7.3-7.4) at each temperature (4° and 37° C.) is maintained by recognition and allowance for the temperature coefficient of the HEPES buffer. Subculture of cells is performed by brief trypsinization, followed by neutralization of trypsin, wash in media, reconstitution of cell suspension in medium with 1% serum, and plating onto culture plates and coverslips. For Ca^2+ imaging experiments, VMC from primary culture are used.\nImaging of intracellular Ca^2+ changes is performed using the fluorescent indicator, Fluo3. Glass coverslips with attached VMC are placed into 300 μL LF 922 laminar flow chambers on the stage of a Zeiss Axiovert 200M microscope, and suffused with ISM2 continuously at 1 mL/min. Live cell fluorescent data acquisition is performed with a photon counting Hamamatsu VIM camera in conjunction with image processing software. Briefly, VMC are loaded with 3 μM Fluo3 for 10 min (stopped flow), then washed (continuously suffused) with ISM2 for 5 min. VMC are exposed for stimulation to a combination of serotonin and U46619, a stabile thromboxane A2 mimetic. This combination, containing serotonin at a concentration of 10 μM and U46619 at a concentration of 100 nM, is referred to as S+U. The VMC are exposed to the S+U combination for 15 sec (stopped flow), and then continuously suffused with ISM2."}, "[2]": {"system": "coronary arteries of ovariectomized rhesus monkeys", "test": "Drug-induced (serotonin + U46619) coronary vasospasm in ovariectomized rhesus monkeys, coronary angiography", "format": "in vivo, Macaca mulatta", "experimental": "Six adult ovariectomized (OVX) female rhesus monkeys (Macaca mulatta) were employed in the studies described below. None of the monkeys had been exposed to high cholesterol diets and all were later verified to lack evidence of cardiovascular disease. […] The monkeys were entered into the study no less than 3 months after ovariectomy.\nAngiography after overnight fasting began with preanesthesia with ketamine (10 mg/kg body weight intramuscular), intubation with an endotracheal tube and a light surgical plane of anesthesia with isoflurane (induced at 1.5% to 3% maintained at 0.75% to 1.25%), vaporized with 33% nitrous oxide and 67% oxygen, or with 100% oxygen. Bilateral femoral intraarterial 3F catheters allowed for coronary catheterization and continuous recording of systemic arterial blood pressure and heart rate, which were maintained close to the initial anesthetic value for each monkey. […] A heating pad assisted in maintenance of a body temperature decrease ≦2° C. of preanesthesia body temperature (monitored by rectal thermometer). An electrocardiogram (ECG) recorded on a Gould eight-channel recorder, cutaneous arterial oxygen saturation, respiratory rate and end-tidal CO2 were also monitored.\nEntire experiments were recorded on videotape (with episodic fluoroscopic imaging and continuous voice annotation) to permit computerized quantitative coronary angiography. […]\nPlacement of the 3F catheter was adjusted to provide sufficient filling with radio-opaque contrast medium, limited reflux and isolation of a branch of the coronary arterial tree. […] Fluoroscopic images were recorded on film using an OEC model 9800 digital x-ray system with fluoroscopic C-arm, digitally recorded, and evaluated in subsequent analysis. All procedures including a brief 0.2 ml injection of Hexabrix for optimal quantitative angiography were recorded on videotape for subsequent computer analysis. […]\nAfter 4 weeks of daily treatment with 0.2 mg/kg of the estriol topical cream, the monkeys were studied by coronary catheterization, and reactivity was assessed by injection of serotonin (100 μM) and U46619 (1 μM). […]"}, "[3]": {"test": "Estriol absorbed, urine level after topical estriol cream", "format": "in vivo, Macaca mulatta", "conditions": "OVX rhesus monkeys, daily 0.3% estriol topical cream, urine collected just prior to catheterization, n = 5", "procedure": "Repeat slow intracoronary infusions of 1 ml over 30 seconds of the combination of serotonin and U46619 in this 100:1 molar ratio were used, adjusted for body weight (0.2 mg/kg) to produce coronary blood levels of 6.7 μM serotonin and 67 nM U46619. The levels of these two components were based on calculated coronary flow dilution."}, "[4]": {"system": "VMC isolated from OVX monkeys", "test": "Ca2+ response to S+U of cultured VMC isolated from estriol-treated OVX monkeys (Fluo3 imaging)", "format": "cell-based, rhesus monkey", "conditions": "VMC from OVX monkeys treated 4 weeks with daily transdermal estriol, cultured 2 weeks", "from_the_text": "as §1, with “dextrose. […]” for “dextrose.”\nEnzyme exposure is minimized by cold and added serum. […] The remaining cells in suspension are counted and concentrated to ˜100,000 living cells/ml by centrifugation, and re-suspended in CV5M at 37° C. […]"}},
  "note": "Entries after “also recorded” stand apart in the source; their conditions may differ.",
  "data": [
    {"compound": "C[C@]12CC[C@H](O)C[C@@H]1CC[C@@H]1[C@@H]2CC[C@]2(C)[C@@H](O)CC[C@@H]12", "note": "[3βAdiol, 5α-androstan-3β,17β-diol]", "values": [
      {"measurement": "Estrogen beta receptor agonist activity (increase in polarization)", "setting": "[1]", "result": "beta receptor activity similar to that of estriol and estradiol"},
      {"measurement": "Protection relative to genistein and DPN", "setting": "rhesus coronary VMC; 300 pM 3βAdiol vs 10 nM genistein and 1 nM DPN, FIG. 6", "result": "superior"},
      {"measurement": "Ca2+ response to S+U (protected state vs control)", "setting": "rhesus coronary VMC; 300 pM", "result": "produced a protected state"},
      {"measurement": "Ca2+ signal in response to 15 sec S+U (protection)", "setting": "rhesus coronary VMC; 72 hours treatment at 300 pM", "result": "protection with estriol was found to be weaker than the estrogen beta receptor selective agonists 3βAdiol and epiestriol"},
      {"measurement": "Ca2+ response to S+U", "setting": "rhesus coronary VMC; concentrations greater than 30 pM (range tested 30 pM to 3 nM), FIG. 5", "result": "a protected state was established"}
    ]},
    {"compound": "N#CC(Cc1ccc(O)cc1)c1ccc(O)cc1", "note": "(stereo not drawn) [DPN, diarylpropionitrile]", "values": [
      {"measurement": "Ca2+ response to S+U (protected state vs control)", "setting": "rhesus coronary VMC; 1 nM", "result": "produced a protected state"}
    ]},
    {"compound": "CC[C@@H]1Cc2cc(O)ccc2C2=C1c1ccc(O)cc1C[C@H]2CC", "note": "[RRTHC, RR-tetrahydrochrysene]", "values": [
      {"measurement": "Ca2+ signal in response to 15 sec S+U (exaggerated hyperreactive state)", "setting": "rhesus coronary VMC; 1 to 6 hour treatment with RRTHC, FIG. 7B", "result": "not"},
      {"measurement": "Ca2+ signal in response to 15 sec S+U", "setting": "rhesus coronary VMC; 72 hours in RRTHC in vitro, FIG. 7B, p<0.05", "result": "exaggerated hyperreactive state beyond control"},
      {"measurement": "Effect on protection by 72 hour 300 pM 3βAdiol (Ca2+ signal after S+U)", "setting": "rhesus coronary VMC; RRTHC 30 μM, 3 hours prior to and during 3βAdiol, FIG. 7A, p<0.05", "result": "blocked"}
    ]},
    {"compound": "C[C@]12CC[C@@H]3c4ccc(O)cc4CC[C@H]3[C@@H]1C[C@H](O)[C@@H]2O", "note": "[epiestriol]", "values": [
      {"measurement": "Estrogen beta receptor agonist activity (increase in polarization)", "setting": "[1]", "result": "beta receptor activity similar to that of estriol and estradiol"},
      {"measurement": "Ca2+ signal in response to 15 sec S+U (protection)", "setting": "rhesus coronary VMC; 72 hours treatment at 1 nM", "result": "protection with estriol was found to be weaker than the estrogen beta receptor selective agonists 3βAdiol and epiestriol"}
    ]},
    {"compound": "C[C@]12CC[C@@H]3c4ccc(O)cc4CC[C@H]3[C@@H]1C[C@@H](O)[C@@H]2O", "note": "[estriol]", "values": [
      {"measurement": "Vasospasm criteria met (incidence)", "setting": "[2]; OVX rhesus monkeys, 4 weeks daily 0.3% estriol topical cream, intracoronary serotonin + U46619, criteria <33% of control diameter for >5 minutes", "result": "0/6"},
      {"measurement": "Protection against coronary vasospasm", "setting": "[2]; OVX rhesus monkeys, 4 weeks daily estriol topical cream, serotonin + U46619 challenge", "result": "protected against vasospasm; also recorded: protection against coronary vasospasm by administration of estriol was categorical"},
      {"measurement": "Minimum diameter of coronary arteries following S+U provocative stimulus", "setting": "[2]; estriol cream treated OVX monkeys vs untreated OVX, FIG. 1, p<0.05", "result": "indicative of protection against provoked vasospasm"},
      {"measurement": "E3 absorbed, urine (total)", "setting": "[3]", "result": "***2412 +/− 316 (n = 5) ng/ml"},
      {"measurement": "Ca2+ response state after S+U challenge", "setting": "[4]; 15 sec S+U stimulus, FIG. 2", "result": "protected state"},
      {"measurement": "Duration of Ca2+ spike after S+U challenge", "setting": "[4]; declining after 2 min to nearly baseline", "result": "10 to 30", "unit": "s"},
      {"measurement": "Estrogen beta receptor agonist activity (increase in polarization)", "setting": "[1]", "result": "estrogen beta agonists"},
      {"measurement": "Ca2+ signal in response to 15 sec S+U (protection)", "setting": "rhesus coronary VMC; 72 hours treatment at 1 nM", "result": "protective"},
      {"measurement": "Protection relative to the other agonists", "setting": "rhesus coronary VMC; 72 hours, 1 nM estriol vs 300 pM 3βAdiol and 1 nM epiestriol, FIG. 4, p<0.05", "result": "weaker"}
    ]},
    {"compound": "O=c1c(-c2ccc(O)cc2)coc2cc(O)cc(O)c12", "note": "[genistein]", "values": [
      {"measurement": "Ca2+ response to S+U (protected state vs control)", "setting": "rhesus coronary VMC; 10 nM", "result": "produced a protected state"}
    ]}
  ]
}
